Activity calls are given as the source filed them. The calls are words filed in the database; no cut-off is given here. Positions of bridges follow the written chain, without caps; N, C: chain ends. Non-standard residues stand in square brackets, D forms with d. Residues, ends and D or L forms follow the SMILES beside them. R5 = C=CCCC[C@@](C)(N)C(=O)O
Assays:
A549 [1] = test: Synergistic antiproliferative activity against human A549 cells assessed as combination index at 1.563 uM incubated for 72 hrs in presence of 12 uM cisplatin by Chou-Talalay method; format: functional
A549 [2] = test: Downregulation of TXN mRNA level in human A549 cells at 50 uM incubated for 72 hrs by qPCR assay; format: functional, cell-based
A549 [3] = test: Synergistic antiproliferative activity against human A549 cells assessed as combination index at 12.5 uM incubated for 72 hrs in presence of 6 uM cisplatin by Chou-Talalay method; format: functional
A549 [4] = test: Synergistic antiproliferative activity against human A549 cells assessed as cell death at 3.125 uM incubated for 72 hrs in presence of 6 uM cisplatin by MTT assay (reference value: 46%); format: functional
A549 [5] = test: Synergistic antiproliferative activity against human A549 cells assessed as cell death at 25 uM incubated for 72 hrs in presence of 6 uM cisplatin by MTT assay (reference value: 46%); format: functional
A549 [6] = test: Antiproliferative activity against human A549 cells assessed as cell death at 6.25 uM incubated for 72 hrs by MTT assay relative to control; format: functional
A549 [7] = test: Synergistic antiproliferative activity against human A549 cells assessed as cell death at 3.125 uM incubated for 72 hrs in presence of 12 uM cisplatin by MTT assay (reference value: 66%); format: functional
A549 [8] = test: Antiproliferative activity against human A549 cells assessed as cell death at 12.5 uM incubated for 72 hrs by MTT assay relative to control; format: functional
A549 [9] = test: Antiproliferative activity against human A549 cells assessed as cell death at 25 uM incubated for 72 hrs by MTT assay relative to control; format: functional
HEK-293T = test: Cytotoxicity against HEK-293T cells assessed as reduction in cell viability; format: toxicity, cell-based; details: human
A549 [10] = test: Antiproliferative activity against human A549 cells assessed as cell death at 50 uM incubated for 72 hrs by MTT assay relative to control; format: functional
A549 [11] = test: Synergistic antiproliferative activity against human A549 cells assessed as combination index at 25 uM incubated for 72 hrs in presence of 6 uM cisplatin by Chou-Talalay method; format: functional
A549 [12] = test: Synergistic antiproliferative activity against human A549 cells assessed as combination index at 50 uM incubated for 72 hrs in presence of 12 uM cisplatin by Chou-Talalay method; format: functional
A549 [13] = test: Downregulation of GCLC mRNA level in human A549 cells at 50 uM incubated for 72 hrs by qPCR assay; format: functional, cell-based
[14] = target: T1, Nuclear factor erythroid 2-related factor 2 (Homo sapiens) (UniProt Q16236); test: Inhibition of Nrf2 transcriptional activity in human A549 cells assessed as reduction in glutathione level at 50 to 100 uM incubated for 24 hrs by GSH-Glo glutathione assay; format: cell-based; details: dose 50-100 µM
T1 sequence (whole entry): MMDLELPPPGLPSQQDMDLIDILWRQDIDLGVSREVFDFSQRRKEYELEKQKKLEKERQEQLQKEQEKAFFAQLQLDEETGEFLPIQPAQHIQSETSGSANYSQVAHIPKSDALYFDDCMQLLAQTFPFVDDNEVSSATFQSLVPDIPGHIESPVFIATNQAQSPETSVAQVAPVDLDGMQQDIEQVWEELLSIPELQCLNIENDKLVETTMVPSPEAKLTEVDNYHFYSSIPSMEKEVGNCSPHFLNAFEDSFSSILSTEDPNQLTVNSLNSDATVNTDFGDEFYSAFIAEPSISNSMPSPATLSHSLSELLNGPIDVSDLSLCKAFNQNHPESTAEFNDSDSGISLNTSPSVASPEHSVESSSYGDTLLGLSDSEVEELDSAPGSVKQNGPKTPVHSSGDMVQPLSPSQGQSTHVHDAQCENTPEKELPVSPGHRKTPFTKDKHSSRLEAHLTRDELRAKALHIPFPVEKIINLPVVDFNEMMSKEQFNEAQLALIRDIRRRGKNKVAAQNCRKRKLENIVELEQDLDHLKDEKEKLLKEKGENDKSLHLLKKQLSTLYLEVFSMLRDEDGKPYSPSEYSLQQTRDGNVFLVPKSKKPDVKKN

[15] = Hemolytic activity against human red blood cells at 100 uM relative to control; format: toxicity, cell-based, Erythrocyte; details: red blood cells (erythrocytes), read-out: Activity
A549 [16] = test: Synergistic antiproliferative activity against human A549 cells assessed as cell death at 1.563 uM incubated for 72 hrs in presence of 12 uM cisplatin by MTT assay (reference value: 66%); format: functional
NRF2-MAFG (Homo sapiens) = NRF2-MAFG (Homo sapiens) (UniProt Q16236+O15525); test: Inhibition of human Nrf2/MafG heterodimerization expressed in Escherichia coli Rosetta (DE3) by Split-luciferase assay; details: dose 1.56-100 µM
A549 [17] = test: Antiproliferative activity against human A549 cells assessed as cell death at 3.125 uM incubated for 72 hrs by MTT assay relative to control; format: functional
A549 [18] = test: Synergistic antiproliferative activity against human A549 cells assessed as cell death at 50 uM incubated for 72 hrs in presence of 12 uM cisplatin by MTT assay (reference value: 66%); format: functional
A549 [19] = test: Synergistic antiproliferative activity against human A549 cells assessed as combination index at 100 uM incubated for 72 hrs in presence of 6 uM cisplatin by Chou-Talalay method; format: functional
A549 [20] = test: Synergistic antiproliferative activity against human A549 cells assessed as cell death at 100 uM incubated for 72 hrs in presence of 6 uM cisplatin by MTT assay (reference value: 46%); format: functional
[21] = Stability of compound assessed as proteinase K (unknown origin) mediated compound degradation at 55 uM measured upto 24 hrs by LC/MS analysis; format: ADME; details: human
A549 [22] = test: Synergistic antiproliferative activity against human A549 cells assessed as combination index at 1.563 uM incubated for 72 hrs in presence of 6 uM cisplatin by Chou-Talalay method; format: functional
A549 [23] = test: Downregulation of ABCC1 mRNA level in human A549 cells at 50 uM incubated for 72 hrs by qPCR assay; format: functional, cell-based
A549 [24] = test: Synergistic antiproliferative activity against human A549 cells assessed as cell death at 100 uM incubated for 72 hrs in presence of 12 uM cisplatin by MTT assay (reference value: 66%); format: functional
[25] = target: T1, Nuclear factor erythroid 2-related factor 2 (Homo sapiens); test: Inhibition of human Nrf2 in HEK-293T cells expressing ARE-firefly luciferase and TK-Renilla luciferase at 50 to 100 uM incubated for 16 hrs by Dual-Luciferase reporter based luminometer analysis; format: cell-based; details: dose 50-100 µM
A549 [26] = test: Synergistic antiproliferative activity against human A549 cells assessed as combination index at 6.25 uM incubated for 72 hrs in presence of 12 uM cisplatin by Chou-Talalay method; format: functional
A549 [27] = test: Synergistic antiproliferative activity against human A549 cells assessed as combination index at 12.5 uM incubated for 72 hrs in presence of 12 uM cisplatin by Chou-Talalay method; format: functional
A549 [28] = test: Downregulation of TrxR1 protein expression in human A549 cells at 25 to 50 uM incubated for 72 hrs by Western blot analysis; format: functional, cell-based; details: dose 25-50 µM
A549 [29] = test: Synergistic antiproliferative activity against human A549 cells assessed as cell death at 12.5 uM incubated for 72 hrs in presence of 6 uM cisplatin by MTT assay (reference value: 46%); format: functional

CC[C@H](C)[C@H](NC(C)=O)C(=O)N[C@H](C(=O)N[C@@H](CCC(=O)O)C(=O)N[C@@H](CC(C)C)C(=O)N[C@@H](CCC(=O)O)C(=O)N[C@]1(C)CCC/C=C\CCC[C@](C)(C(=O)N[C@@H](CC(C)C)C(=O)N[C@@H](CCCCN)C(=O)N[C@@H](CC(=O)O)C(=O)N[C@@H](CCC(=O)O)C(=O)N[C@@H](CCCCN)C(=O)N[C@@H](CCC(=O)O)C(N)=O)NC(=O)[C@H](CC(=O)O)NC(=O)[C@H](CC(C)C)NC(=O)[C@H](CC(=O)O)NC1=O)C(C)C (Ac-IVELE[R5]DLD[R5]LKDEKE-NH2; staple (Z) 6-10)
CI (A549 [1]): 0.96 | Activity (A549 [2]): Active | CI (A549 [3]): 0.57 | Activity (A549 [4]): 52% | Activity (A549 [5]): 68% | Activity (A549 [6]): 17% | Activity (A549 [7]): 71% | Activity (A549 [8]): 24% | Activity (A549 [9]): 30% | Activity (HEK-293T): Non-Toxic | Activity (A549 [10]): 34% | CI (A549 [11]): 0.51 | CI (A549 [12]): 0.19 | Activity (A549 [13]): Active | inhibition [14]: Active | hemolysis at 100 µM [15]: 0.3% | Activity (A549 [16]): 67% | inhibition (NRF2-MAFG (Homo sapiens)): Dose-Dependent Effect | Activity (A549 [17]): 12% | Activity (A549 [18]): 93% | CI (A549 [19]): 0.42 | Activity (A549 [20]): 76% | Stability [21]: Unstable | CI (A549 [22]): 0.89 | Activity (A549 [23]): Active | Activity (A549 [24]): 100% | inhibition [25]: Active | CI (A549 [26]): 0.57 | CI (A549 [27]): 0.51 | Activity (A549 [28]): Active | Activity (A549 [29]): 64%

From ChEMBL document CHEMBL5338753, “Stapled Peptides as Direct Inhibitors of Nrf2-sMAF Transcription Factors” (J Med Chem, 2023)
